{"source": "patent US20230000949A1", "about": "“SOLID COMPOSITIONS COMPRISING A PCSK9 INHIBITOR AND A SALT OF N-(8-(2-HYDROXYBENZOYL)AMINO)CAPRYLIC ACID” (Novo Nordisk A/S, priority 2019, published 2023)", "conditions": "pH 6", "data": [{"smiles": "NC(=O)c1cccnc1", "note": "[Nicotinamide]", "values": [{"measurement": "Effect on SNAC solubility", "result": "concentration dependent effect"}]}]}
